# Where two headings read alike, the source gives them in different places.
# How the values were obtained:
# SN 12C = test: NCI 60 antitumor screening (single dose / five doses); format: cell-based; details: Homo sapiens, SN12C, read-out: Growth inhibition percentage (GI %)
# HOP-92 = test: as above; format: cell-based; details: Homo sapiens
# CCRF-CEM = test: as above; format: cell-based; details: Homo sapiens, read-out: Growth inhibition percentage (GI %)
# NCI/ADR-RES = test: as above; format: cell-based; details: Homo sapiens, read-out: Growth inhibition percentage (GI %)
# COLO 205 = test: as above; format: cell-based; details: Homo sapiens
# MDA-MB-468 = test: as above; format: cell-based; details: Homo sapiens
# SNB-75 = test: as above; format: cell-based; details: Homo sapiens
# MALME-3M = test: as above; format: cell-based; details: Homo sapiens, read-out: Growth inhibition percentage (GI %)
# A498 = test: as above; format: cell-based; details: Homo sapiens
# HS 578T = test: NCI 60 antitumor screening (single dose); format: cell-based; details: Homo sapiens; HS 578T (breast cancer), single dose 10 μM; read-out: Growth inhibition percentage (GI %)
# Summary of the method: (§1)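 Percent growth inhibition, calculated as 100 minus percent growth (G%) of treated cells, following a single 10 μM exposure in the NCI 60 human cancer cell screen; triplicate runs.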
# SK-OV-3 = test: NCI 60 antitumor screening (single dose); format: cell-based; details: Homo sapiens; SK-OV-3 (ovarian cancer), single dose 10 μM; read-out: Growth inhibition percentage (GI %)
# Summary of the method: (§2)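 Test compound added at 10 μM to each of 60 human cancer lines from nine tumour types; growth measured per NCI protocol in triplicate; percent growth converted to inhibition (100 − G%).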
# NCI-H460 = test: NCI 60 antitumor screening (single dose); format: cell-based; details: Homo sapiens; NCI-H460 (non-small cell lung cancer), single dose 10 μM; read-out: Growth inhibition percentage (GI %)
# Summary of the method: as §2
# PC-3 = test: NCI 60 antitumor screening (single dose); format: cell-based; details: Homo sapiens; PC-3 (prostate cancer), single dose 10 μM; read-out: Growth inhibition percentage (GI %)
# Summary of the method: as §1
# DU-145 = test: NCI 60 antitumor screening (single dose / five doses); format: cell-based; details: Homo sapiens
# RXF 393 = test: as above; format: cell-based; details: Homo sapiens
# SW-620 = test: as above; format: cell-based, human; details: Homo sapiens
# HT29 = test: as above; format: cell-based, human; details: Homo sapiens
# MDA-MB-231/ATCC = test: as above; format: cell-based; details: Homo sapiens
# UACC-257 = test: as above; format: cell-based; details: Homo sapiens
# SR = test: as above; format: cell-based; details: Homo sapiens, read-out: Growth inhibition percentage (GI %)
# SK-MEL-28 = test: as above; format: cell-based; details: Homo sapiens
# SK-MEL-5 = test: as above; format: cell-based; details: Homo sapiens
# ACHN = test: as above; format: cell-based; details: Homo sapiens, read-out: Growth inhibition percentage (GI %)
# MDA-MB-435 = test: as above; format: cell-based; details: Homo sapiens
# EKVX = test: as above; format: cell-based; details: Homo sapiens, read-out: Growth inhibition percentage (GI %)
# IGROV1 = test: as above; format: cell-based; details: Homo sapiens
# SF-539 = test: as above; format: cell-based; details: Homo sapiens
# UACC-62 = test: as above; format: cell-based; details: Homo sapiens
smiles,measurement,setting,value
"Clc1cccc(/C=N/Nc2nc(N/N=C/c3cccc(Cl)c3Cl)nc(N3CCCCC3)n2)c1Cl [compound 7h, 2,4-Bis[(E)-2-[(2,3-Dichlorophenyl)methylidene]hydrazin-1-yl]-6-(piperidin-1-yl)-1,3,5-triazine]",inhibition at 10 µM,"SN 12C; SN 12C (renal cancer), single dose 10 μM",19.3%
same,inhibition at 10 µM,"HOP-92; HOP-92 (non-small cell lung cancer), single dose 10 μM, read-out: Growth inhibition percentage (GI %)",13.8%
same,inhibition at 10 µM,"CCRF-CEM; CCRF-CEM (leukaemia), single dose 10 μM",28.7%
same,inhibition at 10 µM,"NCI/ADR-RES; NCI/ADR-RES (ovarian cancer), single dose 10 μM",32.6%
same,inhibition at 10 µM,"COLO 205; COLO 205 (colon cancer), single dose 10 μM, read-out: Growth inhibition percentage (GI %)",9.72%
same,inhibition at 10 µM,"MDA-MB-468; MDA-MB-468 (breast cancer), single dose 10 μM, read-out: Growth inhibition percentage (GI %)",7.19%
same,inhibition at 10 µM,"SNB-75; SNB-75 (CNS cancer), single dose 10 μM, read-out: Growth inhibition percentage (GI %)",-4.05%
same,inhibition at 10 µM,"MALME-3M; MALME-3M (melanoma), single dose 10 μM",7.49%
same,inhibition at 10 µM,"A498; A498 (renal cancer), single dose 10 μM, read-out: Growth inhibition percentage (GI %)",7.46%
same,inhibition at 10 µM,HS 578T,15%
same,inhibition at 10 µM,SK-OV-3,-5.17%
same,inhibition at 10 µM,NCI-H460,66.2%
same,inhibition at 10 µM,PC-3,29.9%
same,inhibition at 10 µM,"DU-145; DU-145 (prostate cancer), single dose 10 μM, read-out: Growth inhibition percentage (GI %)",26.6%
same,inhibition at 10 µM,"RXF 393; RXF 393 (renal cancer), single dose 10 μM, read-out: Growth inhibition percentage (GI %)",-11.8%
same,inhibition at 10 µM,"SW-620; SW-620 (colon cancer), single dose 10 μM, read-out: Growth inhibition percentage (GI %)",57.4%
same,inhibition at 10 µM,"HT29; HT-29, HT29 (colon cancer), single dose 10 μM, read-out: Growth inhibition percentage (GI %)",15.7%
same,inhibition at 10 µM,"MDA-MB-231/ATCC; MDA-MB-231/ATCC (breast cancer), single dose 10 μM, read-out: Growth inhibition percentage (GI %)",15.8%
same,inhibition at 10 µM,"UACC-257; UACC-257 (melanoma), single dose 10 μM, read-out: Growth inhibition percentage (GI %)",10.2%
same,inhibition at 10 µM,"SR; SR (leukaemia), single dose 10 μM",66.6%
same,inhibition at 10 µM,"SK-MEL-28; SK-MEL-28 (melanoma), single dose 10 μM, read-out: Growth inhibition percentage (GI %)",5.78%
same,inhibition at 10 µM,"SK-MEL-5; SK-MEL-5 (melanoma), single dose 10 μM, read-out: Growth inhibition percentage (GI %)",0.02%
same,inhibition at 10 µM,"ACHN; ACHN (renal cancer), single dose 10 μM",16.3%
same,inhibition at 10 µM,"MDA-MB-435; MDA-MB-435 (melanoma), single dose 10 μM, read-out: Growth inhibition percentage (GI %)",-13.8%
same,inhibition at 10 µM,"EKVX; EKVX (non-small cell lung cancer), single dose 10 μM",11%
same,inhibition at 10 µM,"IGROV1; IGROV-1, IGROV1 (ovarian cancer), single dose 10 μM, read-out: Growth inhibition percentage (GI %)",20.4%
same,inhibition at 10 µM,"SF-539; SF-539 (CNS cancer), single dose 10 μM, read-out: Growth inhibition percentage (GI %)",15.7%
same,inhibition at 10 µM,"UACC-62; UACC-62 (melanoma), single dose 10 μM, read-out: Growth inhibition percentage (GI %)",31.7%
"O=[N+]([O-])c1cc(/C=N/Nc2nc(N/N=C/c3ccc(Cl)c([N+](=O)[O-])c3)nc(N3CCCCC3)n2)ccc1Cl [compound 7i, 2,4-Bis[(E)-2-[(4-Chloro-3-nitrophenyl)methylidene]hydrazin-1-yl]-6-(piperidin-1-yl)-1,3,5-triazine]",inhibition at 10 µM,SN 12C,27.7%
same,inhibition at 10 µM,"HOP-92; HOP-92, read-out: Growth inhibition percentage (GI %)",-23.1%
same,inhibition at 10 µM,CCRF-CEM; CCRF-CEM,38.7%
same,inhibition at 10 µM,NCI/ADR-RES; NCI/ADR-RES,69.8%
same,inhibition at 10 µM,"COLO 205; COLO 205, read-out: Growth inhibition percentage (GI %)",-0.27%
same,inhibition at 10 µM,"MDA-MB-468; MDA-MB-468, read-out: Growth inhibition percentage (GI %)",31.2%
same,inhibition at 10 µM,"SNB-75; SNB-75, read-out: Growth inhibition percentage (GI %)",-36.1%
same,inhibition at 10 µM,MALME-3M; Malme-3M,-1.47%
same,inhibition at 10 µM,"A498; A498, read-out: Growth inhibition percentage (GI %)",-8.06%
same,inhibition at 10 µM,HS 578T,46.2%
same,inhibition at 10 µM,SK-OV-3,1.24%
same,inhibition at 10 µM,NCI-H460,1.33%
same,inhibition at 10 µM,PC-3,46.6%
same,inhibition at 10 µM,"DU-145; DU-145, read-out: Growth inhibition percentage (GI %)",70.4%
same,inhibition at 10 µM,"RXF 393; RXF 393, read-out: Growth inhibition percentage (GI %)",0.13%
same,inhibition at 10 µM,"SW-620; SW-620, read-out: Growth inhibition percentage (GI %)",36.3%
same,inhibition at 10 µM,"HT29; HT-29, read-out: Growth inhibition percentage (GI %)",92.6%
same,inhibition at 10 µM,"MDA-MB-231/ATCC; MDA-MB-231, read-out: Growth inhibition percentage (GI %)",51.7%
same,inhibition at 10 µM,"UACC-257; UACC-257, read-out: Growth inhibition percentage (GI %)",56.9%
same,inhibition at 10 µM,SR; SR,36.8%
same,inhibition at 10 µM,"SK-MEL-28; SK-MEL-28, read-out: Growth inhibition percentage (GI %)",22.2%
same,inhibition at 10 µM,"SK-MEL-5; SK-MEL-5, read-out: Growth inhibition percentage (GI %)",48.9%
same,inhibition at 10 µM,ACHN; ACHN,64.8%
same,inhibition at 10 µM,"MDA-MB-435; MDA-MB-435, read-out: Growth inhibition percentage (GI %)",19.3%
same,inhibition at 10 µM,EKVX; EKVX,22%
same,inhibition at 10 µM,"IGROV1; IGROV-1, read-out: Growth inhibition percentage (GI %)",47.2%
same,inhibition at 10 µM,"SF-539; SF-539, read-out: Growth inhibition percentage (GI %)",63.7%
same,inhibition at 10 µM,"UACC-62; UACC-62, read-out: Growth inhibition percentage (GI %)",34%
